Data reported in US20220117845A1, “COMPOSITION AND CONTAINER, KIT, METHOD OF USE” (NTC S.R.L., priority 2019, published 2022).

Experiments:
[1] = Bulk density of the powder; type: physicochemical; settings: after passing through drum centrifugal sieve shaker, mesh 3 mm clear span; measured in the laboratory
Experimental: As regards the bulk density outlined above, in particular the poured bulk density, such parameter is measured according to the European Pharmacopoeia reference standard (Ph. Eur.), current edition 2.2.42, in force at the priority date of this patent application. In the context of the present invention, the expression ‘bulk’ implies that the powder density value is calculated in a manner formally analogous to an absolute density (such as for a solid body or for a liquid). However, since a powder has empty inter-particle spaces, the total volume occupied by the powder (i.e. its outer bulk), thus including the inter-particle spaces between the various particles, should be taken into account when evaluating bulk density. More precisely, according to the aforementioned regulation, a 100 ml class A graduated flask is filled and brought to volume with the powder particles, after which the bulk density is calculated as the ratio between the weight of the powder contained in the flask and the volume (100 ml) occupied by that weight of the powder particles.

[2] = Dissolution study as a function of the pH value of water; type: physicochemical; settings: 150 g in 900 ml of water
Text: The solubility of the mannitol powder was then studied in the following three types of non-carbonated commercial waters: • Sangemini: pH at source 6.2; • Antica Fonte Boario: pH at source 7.0; • Panna Toscana: pH at source 8.0.

OC[C@@H](O)[C@@H](O)[C@H](O)[C@H](O)CO [mannitol]
transient density [1]: about 0.73 g/ml
time for complete dissolution ([2]; weakly acidic or neutral pH): more than 6 minutes
time for complete dissolution relative to weakly acidic or neutral pH ([2]; weakly basic pH): substantially half as much
